Laboratory results reported in patent publication US6011010A, “Cytotoxic and antiviral compound” (Pharma Mar, s.a., priority 1997, dated 2000).
≈ marks a conversion by molar mass, not a printed value.

Tests used:
[1] = In vitro cytotoxicity, human lung carcinoma A-549 cell culture; format: cell-based; conditions: read-out: Cytotoxicity μg/mL (IC50)
Description: (§1) The antitumor activities of this compound have been determinated "in vitro" in cell cultures of human lung carcinoma A-549 and human colon carcinoma HT-29. The procedure was carried out using the methodology described by Raymond J. Bergeron et al., Biochem. Biophys. Res. Comm. 1984, 121 (3), 848-854 and by Alan C. Schroeder et al., J. Med. Chem. 1981, […] 1078-1083.

[2] = system: Saccharomyces cerevisiae; conditions: 50 μg/disk
[3] = In vitro cytotoxicity, human colon carcinoma HT-29 cell culture; format: cell-based; conditions: read-out: Cytotoxicity μg/mL (IC50)
Description: as §1

[4] = system: VSV
[5] = system: HSV II; conditions: Mv 1 Lu cells
[6] = system: HSV-1; conditions: CV-1 cells

Q: With C/C=C1\NC(=O)[C@H](Cc2ccccc2)NC(=O)[C@@H](C(C)C)NC(=O)[C@@H]([C@@H](C)CC)NC(=O)[C@H](NC(=O)[C@H](NC(=O)[C@H](CCCN)NC(=O)[C@H]2CCCN2C(=O)[C@H](NC(=O)[C@@H](NC(=O)[C@@H](NC(=O)[C@H](NC(=O)CCCC(C)C)C(C)C)[C@@H](C)O)C(C)C)C(C)C)[C@@H](C)CC)[C@@H](C)OC(=O)[C@H](C(C)C)NC1=O [Kahalalide F] as the molecule, how does the IC50 [1] read?
A: Its IC50 is 2.5 µg/mL (≈ 1.69 µM).

Q: What about the “Antifungal 6 mm disk (zone)” value [2] of the same molecule?
A: Its value is “neg”.

Q: And the IC50 [3]?
A: The IC50 was 0.25 to 0.5 µg/mL (≈ 0.169 to 0.338 µM).

Q: And the “Antiviral μg/mL (M.I.C.)” value [4]?
A: Its value is over 8.

Q: And the Antiviral % reduction ([5]; at 0.5 μg/mL)?
A: Its Antiviral % reduction is 95%.

Q: And the “Antiviral μg/mL (M.I.C.)” value ([5]; concentration giving the printed % reduction)?
A: Its value is 0.5 µg/mL.

Q: What about the “Antiviral μg/mL (M.I.C.)” value [6] of the same molecule?
A: The value was over 8 µg/mL.
